# Source: US20090280160A1, “PHENYLEPHRINE PHARMACEUTICAL FORMULATIONS AND COMPOSITIONS FOR TRANSMUCOSAL ABSORPTION” (Schering-Plough Healthcare Products, Inc., priority 2007, published 2009)
# “Also recorded” adds a separate entry of the source.
# Tests used:
# α2c adrenoreceptor = molecular target: T1, α2c adrenoreceptor (Homo sapiens, UniProt P18825); assay: [35S]-GTPγS binding exchange, α2c CHO cell membranes; format: biochemical; details: for stimulation of [35S]-GTPγS binding, α2c (in words): CHO cell membranes
# T1 construct: expressed in transfected cells; host or cells: CHO (Chinese hamster ovary) cells, membranes
# T1 sequence (P18825 1-462): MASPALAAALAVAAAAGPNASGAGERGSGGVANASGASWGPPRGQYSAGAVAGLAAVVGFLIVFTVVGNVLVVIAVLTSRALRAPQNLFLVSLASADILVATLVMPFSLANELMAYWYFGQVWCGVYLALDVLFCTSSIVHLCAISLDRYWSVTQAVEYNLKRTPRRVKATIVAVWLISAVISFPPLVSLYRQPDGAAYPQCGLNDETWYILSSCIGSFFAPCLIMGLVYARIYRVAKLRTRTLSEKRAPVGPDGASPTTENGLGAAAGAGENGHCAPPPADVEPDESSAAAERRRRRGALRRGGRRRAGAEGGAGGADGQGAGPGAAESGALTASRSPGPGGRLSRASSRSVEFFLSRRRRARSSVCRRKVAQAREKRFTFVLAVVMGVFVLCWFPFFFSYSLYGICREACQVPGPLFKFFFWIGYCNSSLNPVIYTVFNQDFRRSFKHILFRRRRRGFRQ
# Method: (§1) The affinity and activity of phenylephrine metabolites were evaluated in human recombinant α1 and α2 adrenoreceptor binding and activity assays. […] Affinity of the metabolites was determined by receptor binding assays. Functional activity of the metabolites was assessed using an [^35S]-GTPγS binding exchange assay for the α2 receptor subtypes and a cell-based calcium flux response for the α1 receptor subtypes.
# (§2) Assay buffer was 75 mM Tris-HCl pH 7.4, 12.5 mM MgCl2, 2 mM EDTA and 1 μM GDP. Plates were counted on a Packard TopCount. The percent increase over basal binding of [^35S]-GTPγS, a measure of efficacy, was calculated as follows: 100×[[mean total sample cpm−basal cpm]÷by basal cpm]. Basal cpm was defined as the mean cpm in the absence of agonist compound minus the mean non-specific binding cpm.
# (§3) Each metabolite was evaluated in each assay in at least 2 independent experiments and a representative assay of each metabolite/assay combination is shown.
# α2b adrenoreceptor = molecular target: T2, α2b adrenoreceptor (Homo sapiens, UniProt P18089); assay: Competition binding, [3H]-UK14304, α2b CHO cell membranes; details: for inhibition of [3H]-UK14304 binding, α2b (in words): CHO cell membranes
# T2 construct: expressed in transfected cells; host or cells: CHO (Chinese hamster ovary) cells, membranes
# T2 sequence (P18089 1-450): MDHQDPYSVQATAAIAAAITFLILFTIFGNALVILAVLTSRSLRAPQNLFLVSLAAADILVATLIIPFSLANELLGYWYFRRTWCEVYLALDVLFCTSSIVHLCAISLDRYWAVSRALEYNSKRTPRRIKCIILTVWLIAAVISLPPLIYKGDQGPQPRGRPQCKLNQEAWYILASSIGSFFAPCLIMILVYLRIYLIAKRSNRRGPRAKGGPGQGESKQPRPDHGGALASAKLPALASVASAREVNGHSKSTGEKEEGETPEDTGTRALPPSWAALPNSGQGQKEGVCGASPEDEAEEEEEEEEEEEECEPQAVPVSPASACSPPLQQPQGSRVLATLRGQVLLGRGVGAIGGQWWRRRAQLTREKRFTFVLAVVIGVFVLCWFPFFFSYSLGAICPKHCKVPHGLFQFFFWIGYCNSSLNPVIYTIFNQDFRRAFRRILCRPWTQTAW
# Method: as §1
# Competition Binding Assays
# Competition binding assays for the α2 adrenoreceptors were performed using 20 μg membrane protein per well in binding buffer (75 mM Tris-HCl pH 7.4, 12.5 mM MgCl2, […] EDTA, 0.2% bovine serum albumin). […] Binding was terminated by rapid filtration through GF/C unifilter plates, presoaked with 0.3% polyethylenimine, with five washes with 0.5 ml cold 50 mM Tris-HCl ph 7.4, using a Packard Filtermate Harvester. After drying, bound radioactivity was determined by liquid scintillation counting (Packard TopCount) with Microscint 20, 50 μl/well. Binding data were analyzed using GraphPad Prism.
# as §3
# α2a adrenoreceptor = molecular target: T3, α2a adrenoreceptor (Homo sapiens, UniProt P08913); assay: [35S]-GTPγS binding exchange, α2a CHO cell membranes; format: biochemical; details: for stimulation of [35S]-GTPγS binding, α2a (in words): CHO cell membranes
# T3 construct: expressed in transfected cells; host or cells: CHO (Chinese hamster ovary) cells, membranes
# T3 sequence (P08913 1-465): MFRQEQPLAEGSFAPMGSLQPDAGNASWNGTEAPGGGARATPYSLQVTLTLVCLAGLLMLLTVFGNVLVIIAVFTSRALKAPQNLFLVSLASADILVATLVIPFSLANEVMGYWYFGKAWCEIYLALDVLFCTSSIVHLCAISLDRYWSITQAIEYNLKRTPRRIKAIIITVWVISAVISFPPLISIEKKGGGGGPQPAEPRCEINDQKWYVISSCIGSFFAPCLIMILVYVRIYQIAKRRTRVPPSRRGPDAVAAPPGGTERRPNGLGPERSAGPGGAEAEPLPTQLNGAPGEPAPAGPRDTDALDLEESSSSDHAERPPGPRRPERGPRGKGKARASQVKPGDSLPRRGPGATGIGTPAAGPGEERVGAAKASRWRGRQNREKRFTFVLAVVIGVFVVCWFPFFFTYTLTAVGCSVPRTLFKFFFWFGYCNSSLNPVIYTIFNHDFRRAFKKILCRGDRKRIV
# Method: as §1
# as §2, with “Plates” for “Assay buffer was 75 mM Tris-HCl pH 7.4, 12.5 mM MgCl2, 2 mM EDTA and 1 μM GDP. Plates”
# as §3
# [1] = highest concentration evaluated (10 μM)
"agonist activity, α2c [35S]-GTPγS assay (in words) (α2c adrenoreceptor; [1])","EC50 (α2c adrenoreceptor; read-out: EC50, a2c GTPγS (class symbol)) [µM]","Ki (α2b adrenoreceptor; [3H]-UK14304, read-out: Ki, a2b Binding (class symbol)) [µM]","binding / affinity, α2b receptor (in words) (α2b adrenoreceptor; at 100 μM (highest concentration evaluated))","agonist activity, α2a [35S]-GTPγS assay (in words) (α2a adrenoreceptor; [1])","EC50 (α2a adrenoreceptor; read-out: EC50, a2a GTPγS (class symbol)) [µM]",Structure (SMILES),"stimulation of [35S]-GTPγS binding, α2c (in words) (α2c adrenoreceptor)","stimulation of [35S]-GTPγS binding, α2c (in words) (α2c adrenoreceptor; listed as PE glucuronide b2)","inhibition of [3H]-UK14304 binding, α2b (in words) (α2b adrenoreceptor)","inhibition of [3H]-UK14304 binding, α2b (in words) (α2b adrenoreceptor; listed as PE glucuronide b4)","inhibition of [3H]-UK14304 binding, α2b (in words) (α2b adrenoreceptor; listed as PE glucuronide batch 4)","stimulation of [35S]-GTPγS binding, α2a (in words) (α2a adrenoreceptor)","activity in α2a [35S]-GTPγS assay (in words) (α2a adrenoreceptor; highest concentration, 100 μM)"
,,,,,,"CNC[C@H](O)c1cccc(O[C@@H]2O[C@H](C(=O)O)[C@@H](O)[C@H](O)[C@H]2O)c1 [PE glucuronide, (R)-PE glucuronide]",nor did it activate binding; also recorded: pharmacologically inactive,No stimulatory activity,weakly inhibits binding; also recorded: pharmacologically inactive,A small amount of binding,minimal activity,nor did it activate binding; also recorded: pharmacologically inactive,very weak binding
no activity,> 10,> 100,no affinity,no activity,> 10,O=C(O)C(O)c1cccc(O)c1 (stereo not shown) [3-hydroxymandelic acid],no activity,,no significant binding,,,no activity,
